Results published in patent US20130085133A1, “ANTI-VIRAL TREATMENT AND ASSAY TO SCREENFOR ANTI-VIRAL AGENT” (Sourthern Research Institute Office of Commercialization …, priority 2010, published 2013).

Columns and labels:
[1] = tested on: RSV, Long strain; assay: virus titer Reduction (VTR) assay, progeny virus TCID50 in HEp-2 cells; assay type: cell-based, respiratory syncytial virus (RSV); conditions: human respiratory syncytial virus, 48 h; for log reduction at 3 µg/mL: 3 ug/ml compound, read-out: TCID-50 Reduction @ 3 ug/ml; for log reduction at 6 µg/mL: 6 ug/ml compound, read-out: TCID-50 Reduction 6 @ ug/ml; for log reduction at 12 µg/mL: 12 ug/ml compound, read-out: TCID-50 Reduction 12 @ ug/ml; for log reduction at 25 µg/mL: 25 ug/ml compound, read-out: TCID-50 Reduction 25 @ ug/ml; for log reduction at 5 µg/mL: 5 ug/ml compound, read-out: TCID-50 Reduction @ 5 ug/ml; for log reduction at 50 µg/mL: 50 ug/ml compound, read-out: TCID-50 Reduction @ 50 ug/ml
Protocol: Four concentrations of each compound were evaluated (Table 3). Briefly, the four concentrations of test compounds, HEp-2 cells (8×10^3 per well) and RSV, Long strain (MOI=0.9) were plated in 96 well microtiter plates. The plates were incubated for 48 hours. Fifteen (15) μl of 10-fold serial dilution of progeny virus containing medium from respective samples (test compound treated or untreated) was transferred to infect fresh HEp-2 cells (2×10^3 cells per well) in a 384 well format. Plates were incubated for an additional 6 days and luminescence was measured using Cell Titer-Glo reagent (Promega Inc.) to determine cell viability. […] A well showing lesser than 50% cell viability was regarded as positive for virus infection. Four replicates for each virus dilution were analyzed and the number of virus positive wells (out of 4) was plotted versus the dilution. TCID50 was calculated to be the dilution that produced two positive wells out of four using ActivityBase software (IDBS, Inc, Guilford, UK).

[2] = tested on: respiratory syncytial virus (RSV) strain Long; assay: microbe, parasite or virus in culture; conditions: human respiratory syncytial virus, HEp-2, 144 h
[3] = cytotoxicity assay (percent viability of HEp-2 cells, Cell Titer-Glo); conditions: human, HEp-2 cells

Row | Compound | EC50 [2] | log reduction at 3 µg/mL [1] | log reduction at 6 µg/mL [1] | log reduction at 12 µg/mL [1] | log reduction at 25 µg/mL [1] | CC50 at 6 days [3] | log reduction at 5 µg/mL [1] | log reduction at 50 µg/mL [1]
1 | O=C(Nc1ccc(Nc2ccccc2)cc1)c1ccccc1Cl [AB00280499] | 6.6 µg/mL | 2.55 | 2.38 | 3.69 | 2.96 | > 25 µg/mL | – | –
2 | Cc1ccn2cc(-c3cccc(NS(=O)(=O)c4ccccc4)c3)nc2c1 [AB00356285] | 4.04 µg/mL | 1.14 | 1.38 | 2.42 | 3.78 | > 25 µg/mL | – | –
3 | COc1ccccc1CCNC(=O)c1cc2c(s1)CCCC2 [AB00367930] | 5.77 µg/mL | 1.82 | 1.04 | 2.68 | 6.4 | > 25 µg/mL | – | –
4 | Cc1nn(-c2ccccc2)c(C)c1C(=O)C(=O)Nc1cccc(Cl)c1 [AB00785138] | 7.52 µM | – | – | 4.24 | 4.56 | > 50 µM | 1.96 | 3.87
5 | COc1ccc(C(=O)Nc2ccc3c(c2)OCCO3)c(OC)c1 [AB00296320] | 8.34 µg/mL | 1.55 | 1.38 | 2.9 | 4.66 | > 25 µg/mL | – | –
6 | CC(C)=CCC1=C(O)C(=O)c2ccccc2C1=O [AB00514453] | 7.23 µM | – | – | 3.33 | 4.47 | > 50 µM | 0.06 | 4.87
7 | COc1c(C)cccc1C(=O)NCCOc1ccc(Cl)cc1 [AB00368252] | 9.43 µg/mL | 1 | 1.3 | 1.72 | 4.94 | > 25 µg/mL | – | –
8 | O=C1c2ccccc2C(=O)N1CCCCN(C(=O)c1ccco1)c1ccc(Cl)cc1 [AB00302018] | 3.4 µg/mL | 1.66 | 2.64 | 2.68 | 3.07 | > 25 µg/mL | – | –
9 | CCOC(=O)C1=C(C)NC(C)=C(C(=O)OCC)C1c1ccc(C#N)cc1 [AB00370331] | 4.2 µg/mL | -0.15 | 1.39 | 1.7 | 2.89 | > 25 µg/mL | – | –
10 | O=C(Nc1ccccc1)N1CCc2cc([N+](=O)[O-])ccc21 [AB00705281] | – | – | – | 4.2 | 5.56 | – | 4.75 | 5.9
11 | CCCSC1=C(C#N)C(c2ccco2)C(C(=O)Nc2ccccc2)=C(C)N1 (stereo not shown) [AB00276073] | 5.12 µg/mL | 1 | 0.63 | 1.39 | 3.57 | > 25 µg/mL | – | –

The next lines start with results.

Row | EC50 [2] | Compound | log reduction at 3 µg/mL [1] | log reduction at 6 µg/mL [1] | log reduction at 12 µg/mL [1] | log reduction at 25 µg/mL [1] | CC50 at 6 days [3] | log reduction at 5 µg/mL [1] | log reduction at 50 µg/mL [1]
12 | 3.14 µg/mL | CCCn1cnc2sc(-c3ccccc3)cc2c1=O [AB00298501] | 1.82 | 2.38 | 2.9 | 3.78 | > 25 µg/mL | – | –
13 | 4.88 µg/mL | CCCn1c(COc2ccccc2OC)nc2ccccc21 [AB00296415] | 1.74 | – | 2.59 | 5.9 | > 25 µg/mL | 2.48 | –
14 | 6.31 µg/mL | Cc1ccc(-c2csc(N)c2C(N)=O)cc1C [AB00310739] | 1.03 | 1.86 | 1.9 | 2.39 | > 25 µg/mL | – | –
15 | 6.97 µg/mL | Cc1ccc(S(=O)(=O)Nc2ccc(NC(=O)c3c(F)c(F)c(F)c(F)c3F)cc2)cc1 [AB00314111] | 1 | 1.01 | 1.41 | 3.05 | > 25 µg/mL | – | –
16 | 2.32 µg/mL | O=C(c1cc(Cl)ccc1Cl)N1CCCN(C(=O)c2cc(Cl)ccc2Cl)CC1 [AB00311948] | 3.13 | – | 5.56 | 5.9 | > 25 µg/mL | 4.64 | –
17 | 8.56 µg/mL | Cc1cccc(N2C(=O)CC(Cc3ccc(Cl)cc3)C2=O)c1Cl (stereo not shown) [AB00292352] | 1.22 | – | 3.82 | 5.9 | > 25 µg/mL | 2.31 | –
